These are literature values, as cited in patent US10716758B2, “Liposomal statin formulation” (Southwest Research Institute, priority 2018, dated 2020).

The subject of one data set is scar, rabbit ear model. The following applies: relatively low doses (40 μM).
The conditions of data set [1]: 20° C. to 25° C.

As for `CC[C@H](C)C(=O)O[C@H]1C[C@@H](C)C=C2C=C[C@H](C)[C@H](CC[C@@H]3C[C@@H](O)CC(=O)O3)[C@H]21` [lovastatin], in the data set on scar, rabbit ear model, the “scar elevation index vs control” value is recorded as “reduction in the scar elevation index”. On to `CC[C@H](C)C(=O)O[C@H]1C[C@H](O)C=C2C=C[C@H](C)[C@H](CC[C@@H](O)C[C@@H](O)CC(=O)O)[C@H]21` [pravastatin], for which the “solubility in water (in words)” value in data set [1] is given as “soluble in water”.
